Test results: PubChem BioAssay AID1963835 (Molecular Pharmacology Branch, DTP, NCI, 2024)

Tested on: 699152-130-R-J1-PDC complex spheroid viability
Experiment: Anticancer human tumor 699152-130-R-J1-PDC patient-derived pancreatic carcinoma cell line growth inhibition [POLQ]
Details: for IC50: curve of first compound; for viability, T/C: stronger effect = lower value; active means viability on the fitted dose curve at most 10% of control; inactive means the rest
Method in brief: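 Complex spheroid viability model combining PDC tumour cells with endothelial (HUVEC) and MSC stromal cells. Novobiocin, ART-558 or RP6685 were tested singly and in combination with standard and investigational anticancer drugs. Each was titrated in half-log steps from near clinical Cmax, or from 10 microM where Cmax was unknown.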

[1] = second compound 0.0316 µM, first compound 0.0316 µM
[2] = second compound 0.0316 µM, first compound 0.1 µM
[3] = second compound 0.0316 µM, first compound 0.316 µM
[4] = second compound 0.0316 µM, first compound 1 µM
[5] = second compound 0.0316 µM, first compound 3.16 µM
[6] = second compound 0.0316 µM, first compound 10 µM
[7] = second compound 0.1 µM, first compound 0.0316 µM
[8] = second compound 0.1 µM, first compound 0.1 µM
[9] = second compound 0.1 µM, first compound 0.316 µM
[10] = second compound 0.1 µM, first compound 1 µM
[11] = second compound 0.1 µM, first compound 3.16 µM
[12] = second compound 0.1 µM, first compound 10 µM
[13] = second compound 0.316 µM, first compound 0.0316 µM
[14] = second compound 0.316 µM, first compound 0.1 µM
[15] = second compound 0.316 µM, first compound 0.316 µM
[16] = second compound 0.316 µM, first compound 1 µM
[17] = second compound 0.316 µM, first compound 3.16 µM
[18] = second compound 0.316 µM, first compound 10 µM
[19] = second compound 1 µM, first compound 0.0316 µM
[20] = second compound 1 µM, first compound 0.1 µM
[21] = second compound 1 µM, first compound 0.316 µM
[22] = second compound 1 µM, first compound 1 µM
[23] = second compound 1 µM, first compound 3.16 µM
[24] = second compound 1 µM, first compound 10 µM
[25] = second compound 3.16 µM, first compound 0.0316 µM
[26] = second compound 3.16 µM, first compound 0.1 µM
[27] = second compound 3.16 µM, first compound 0.316 µM
[28] = second compound 3.16 µM, first compound 1 µM
[29] = second compound 3.16 µM, first compound 3.16 µM
[30] = second compound 3.16 µM, first compound 10 µM
[31] = second compound 10 µM, first compound 0.0316 µM
[32] = second compound 10 µM, first compound 0.1 µM
[33] = second compound 10 µM, first compound 0.316 µM
[34] = second compound 10 µM, first compound 1 µM
[35] = second compound 10 µM, first compound 3.16 µM
[36] = second compound 10 µM, first compound 10 µM
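Further: spheroids exposed to agents for 7 days before viability reading.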
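Wherever viability, T/C is given: percent of DMSO vehicle control viability so 100% = vehicle and 0% = no viable signal.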

COc1cc(C2c3cc4c(cc3C(OC3OC5COC(C)OC5C(O)C3O)C3COC(=O)C23)OCO4)cc(OC)c1O (stereo unspecified) + Nc1ccc(C#CCN(C(=O)Cc2ncc(C(F)(F)F)cc2C(F)(F)F)c2ccc(F)cc2)nn1
9.72 µM: IC50 (second compound 0.0316 µM)
5.57 µM: IC50 (second compound 0.1 µM)
4.26 µM: IC50 (second compound 1 µM)
6.31 µM: IC50 (second compound 3.16 µM)
inactive: viability, T/C [1] 85.2% | viability, T/C [2] 84.2% | viability, T/C [3] 79.5% | viability, T/C [4] 76.3% | viability, T/C [5] 53.9% | viability, T/C [6] 50.1% | viability, T/C [7] 105% | viability, T/C [8] 89% | viability, T/C [9] 77.9% | viability, T/C [10] 70.5% | viability, T/C [11] 52.5% | viability, T/C [12] 44.9% | viability, T/C [13] 108% | viability, T/C [14] 90.6% | viability, T/C [15] 79.8% | viability, T/C [16] 69.1% | viability, T/C [17] 48.1% | viability, T/C [18] 41.2% | viability, T/C [19] 92.2% | viability, T/C [20] 81.9% | viability, T/C [21] 78% | viability, T/C [22] 74.9% | viability, T/C [23] 49.6% | viability, T/C [24] 48.8% | viability, T/C [25] 103% | viability, T/C [26] 85% | viability, T/C [27] 81% | viability, T/C [28] 69.2% | viability, T/C [29] 53.1% | viability, T/C [30] 46.8% | viability, T/C [31] 115% | viability, T/C [32] 85.6% | viability, T/C [33] 89.4% | viability, T/C [34] 65.8% | viability, T/C [35] 53% | viability, T/C [36] 50.7%
8.26 µM: IC50 (second compound 10 µM)
3.86 µM: IC50 (second compound 0.316 µM)

COc1cccc2c1C(=O)c1c(O)c3c(c(O)c1C2=O)CC(O)(C(=O)CO)CC3OC1CC(N)C(O)C(C)O1 (stereo unspecified) + Nc1ccc(C#CCN(C(=O)Cc2ncc(C(F)(F)F)cc2C(F)(F)F)c2ccc(F)cc2)nn1
0.263 µM: IC50 (second compound 3.16 µM)
0.205 µM: IC50 (second compound 1 µM)
0.409 µM: IC50 (second compound 0.1 µM)
inactive: viability, T/C [1] 78% | viability, T/C [2] 61.9% | viability, T/C [3] 51.9% | viability, T/C [4] 36.6% | viability, T/C [5] 2.41% | viability, T/C [7] 76.7% | viability, T/C [8] 69.8% | viability, T/C [9] 51.9% | viability, T/C [10] 37.5% | viability, T/C [11] 3% | viability, T/C [13] 78.9% | viability, T/C [14] 73.3% | viability, T/C [15] 49.7% | viability, T/C [16] 35.7% | viability, T/C [17] 5.24% | viability, T/C [19] 85% | viability, T/C [20] 57.9% | viability, T/C [21] 46.7% | viability, T/C [22] 28.6% | viability, T/C [23] 1.69% | viability, T/C [25] 85.2% | viability, T/C [26] 61.8% | viability, T/C [27] 51.2% | viability, T/C [28] 28.4% | viability, T/C [29] 2.48% | viability, T/C [31] 80.6% | viability, T/C [32] 72% | viability, T/C [33] 56.1% | viability, T/C [34] 31.9% | viability, T/C [35] 3.65%
active: viability, T/C [6] 9.62% | viability, T/C [12] 7.86% | viability, T/C [18] 9.53% | viability, T/C [24] 12.1% | viability, T/C [30] 10.9% | viability, T/C [36] 10.6%
0.353 µM: IC50 (second compound 0.0316 µM)
0.377 µM: IC50 (second compound 0.316 µM)
0.419 µM: IC50 (second compound 10 µM)

O=c1[nH]cc(F)c(=O)[nH]1 + Nc1ccc(C#CCN(C(=O)Cc2ncc(C(F)(F)F)cc2C(F)(F)F)c2ccc(F)cc2)nn1
> 10 µM: IC50 (second compound 0.0316 µM) | IC50 (second compound 0.1 µM) | IC50 (second compound 0.316 µM) | IC50 (second compound 1 µM) | IC50 (second compound 3.16 µM) | IC50 (second compound 10 µM)
inactive: viability, T/C [1] 105% | viability, T/C [2] 105% | viability, T/C [3] 99.3% | viability, T/C [4] 97.9% | viability, T/C [5] 98.1% | viability, T/C [6] 82.1% | viability, T/C [7] 100% | viability, T/C [8] 121% | viability, T/C [9] 104% | viability, T/C [10] 88.7% | viability, T/C [11] 97.3% | viability, T/C [12] 76.9% | viability, T/C [13] 108% | viability, T/C [14] 104% | viability, T/C [15] 103% | viability, T/C [16] 102% | viability, T/C [17] 97.5% | viability, T/C [18] 81.5% | viability, T/C [19] 113% | viability, T/C [20] 95.5% | viability, T/C [21] 97.6% | viability, T/C [22] 103% | viability, T/C [23] 87.8% | viability, T/C [24] 75.9% | viability, T/C [25] 111% | viability, T/C [26] 104% | viability, T/C [27] 93.9% | viability, T/C [28] 95.6% | viability, T/C [29] 104% | viability, T/C [30] 88.4% | viability, T/C [31] 116% | viability, T/C [32] 110% | viability, T/C [33] 119% | viability, T/C [34] 105% | viability, T/C [35] 105% | viability, T/C [36] 87.7%
